According to patent EP2271935B1, “METHOD AND KIT FOR THE EX VIVO EVALUATION OF THE RESPONSE OF A TUMOR TO CONDITIONS TO BE TESTED” (Universität Leipzig, priority 2008, dated 2009):
Where two headings read alike, the source gives them in different places.

System: epithelial cell line KB (DSMZ ACC 136)
Test: MTT assay of proliferation under varied riboflavin content and light exposure
Assay type: cell-based, human
Description: To address this question, three media, a) the RPMI 1640 without riboflavin and phenol red that is used in the method according to the invention and was manufactured according to our specifications by Biochrom, as well as two different RPMI 1640 charges purchased from Invitrogen which were each containing 532 nmol/L riboflavin, b) a phenol red-free (Gibco 11835), and c) a conventional RPMI 1640 (Gibco 21875) with 13.284 µmol/L phenol red. All media were supplemented with 2 mmol/L L-alanyl-1-glutamine as stabilized glutamine source (Biochrom K0302 Lot 0755 S) and the same amount of 10% (v/v) of heat-inactivated fetal calf serum (FCS) that was purchased from Invitrogen (Lot 41Q7554K) with a yield of 198 nmol/L riboflavin. […] These medium concentrations define the riboflavin concentrations in controls (see below).
In addition to the influences exerted by the different types of media alone, the riboflavin-dependent impact on the outcome of the docetaxel treatment was investigated. For this purpose 100 µl/well of docetaxel dilutions containing threefold the concentration indicated were added into the wells of microwell plates. The following seven docetaxel concentrations were tested: 19.38, 38.75, 77.5, 155, 310, 620, and 1,240 pmol/L.
To examine photoactivation-dependent riboflavin-mediated effects disturbing the outcome of ex-vivo chemoresponse-evaluation by conventional cell culture medium, and in particular in the absence of flavin-protecting experimental conditions, varying amounts of riboflavin were added. A stock solution of 200 µM (-)-riboflavin (CAS 83-68-5, Sigma R9504, FW=376.37 g/mol, purity >99%, cell culture tested) in phosphate buffered saline was diluted to adjust in each case the highest final concentration in culture (this means: after completion of the assay by addition of the other two components to the final assay volume of 300 µL) to exactly 10 µmol/L. Serial log10-dilutions were made from this concentration in each corresponding medium. These gave final concentrations in cell culture of 10.000, 1.018, 0.12, and 0.03 µmol/L in the case of medium a) (the medium according to the method of the invention), and concentrations of 10.000, 1.449, 0.594, and 0.508 µmol/L using media b) and c).
In general, each combination of riboflavin and docetaxel were tested in duplicate, and controls without additional riboflavin in quadruplicate for each experimental setting in the same 96-well plate. The experimental conditions were as follows: For each of the used media, two different plates were prepared simultaneously and either handled completely under flavin-protecting conditions (illumination only by sodium discharge lamps with an emission wavelength of 589 nm [i]), or in the same bench (Thermo MSC 12) with the installed light inside their working chamber switched on. The dilution of docetaxel and those of riboflavin in the particular medium were prepared for all four plates of each medium type prior to the other working steps under flavin-protecting conditions. Thus the administrations of these dilutions took about 20 min either under flavin-protecting conditions or illuminated conditions. After completed preparation of the plates that thereafter contained 200 µL of both diluted compounds, the plates were incubated 2 h in the incubator to allow for adjustment of the appropriate pH.
In between the stock culture of KB was harvested by trypsination of a 3-days stock culture (exponential growth phase). Stock cultures of KB cells always were grown without any antibiotic or antimycotic in phenol red- and riboflavin-free RPMI 1640 supplemented with 10% (v/v) FCS and were adapted to this medium for more than five passages. They were always handled at room temperature or warmer and were never exposed to light other than the light of a sodium discharge lamp with an emission wavelength of 589 nm for at least five passages. […]

- IC50 (Homo sapiens, Epithelial cell, 0.5 h, Plate No. 02; Riboflavin 20 nmol/L; medium a) RPMI 1640 without riboflavin and phenol red, daylight 30 min, read-out: IC50 for docetaxel with reference to control with same riboflavin content): 0.238 nM
- IC50 (Homo sapiens, Epithelial cell, 0.5 h, Plate No. 02; Riboflavin 30 nmol/L; medium a) RPMI 1640 without riboflavin and phenol red, daylight 30 min, read-out: IC50 for docetaxel with reference to control with same riboflavin content): 0.328 nM
- IC50 (Homo sapiens, Epithelial cell, 0.5 h, Plate No. 02; Riboflavin 120 nmol/L; medium a) RPMI 1640 without riboflavin and phenol red, daylight 30 min, read-out: IC50 for docetaxel with reference to control with same riboflavin content): 0.34 nM
- IC50 (Homo sapiens, Epithelial cell, 0.5 h, Plate No. 03; Riboflavin 20 nmol/L; medium a) RPMI 1640 without riboflavin and phenol red, bench lighting <30 min, read-out: IC50 for docetaxel with reference to control with same riboflavin content): 0.212 nM
- IC50 (Homo sapiens, Epithelial cell, 0.5 h, Plate No. 03; Riboflavin 30 nmol/L; medium a) RPMI 1640 without riboflavin and phenol red, bench lighting <30 min, read-out: IC50 for docetaxel with reference to control with same riboflavin content): 0.185 nM
- IC50 (Homo sapiens, Epithelial cell, 0.5 h, Plate No. 03; Riboflavin 120 nmol/L; medium a) RPMI 1640 without riboflavin and phenol red, bench lighting <30 min, read-out: IC50 for docetaxel with reference to control with same riboflavin content): 0.154 nM
- IC50 (Homo sapiens, Epithelial cell, 0.5 h, Plate No. 03; Riboflavin 1018 nmol/L; medium a) RPMI 1640 without riboflavin and phenol red, bench lighting <30 min, read-out: IC50 for docetaxel with reference to control with same riboflavin content): 0.202 nM
- IC50 (Homo sapiens, Epithelial cell, 0.5 h, Plate No. 04; Riboflavin 20 nmol/L; medium a) RPMI 1640 without riboflavin and phenol red, bench lighting <30 min, daylight 30 min, read-out: IC50 for docetaxel with reference to control with same riboflavin content): 0.175 nM
- IC50 (Homo sapiens, Epithelial cell, 0.5 h, Plate No. 04; Riboflavin 30 nmol/L; medium a) RPMI 1640 without riboflavin and phenol red, bench lighting <30 min, daylight 30 min, read-out: IC50 for docetaxel with reference to control with same riboflavin content): 0.139 nM
- IC50 (Homo sapiens, Epithelial cell, 0.5 h, Plate No. 04; Riboflavin 120 nmol/L; medium a) RPMI 1640 without riboflavin and phenol red, bench lighting <30 min, daylight 30 min, read-out: IC50 for docetaxel with reference to control with same riboflavin content): 0.149 nM
- IC50 (Homo sapiens, Epithelial cell, 0.5 h, Plate No. 06; Riboflavin 499 nmol/L; medium b) phenol red-free RPMI 1640, daylight 30 min, read-out: IC50 for docetaxel with reference to control with same riboflavin content): 0.223 nM
- IC50 (Homo sapiens, Epithelial cell, 0.5 h, Plate No. 06; Riboflavin 508 nmol/L; medium b) phenol red-free RPMI 1640, daylight 30 min, read-out: IC50 for docetaxel with reference to control with same riboflavin content): 0.485 nM
- IC50 (Homo sapiens, Epithelial cell, 0.5 h, Plate No. 06; Riboflavin 594 nmol/L; medium b) phenol red-free RPMI 1640, daylight 30 min, read-out: IC50 for docetaxel with reference to control with same riboflavin content): 0.187 nM
SMILES: CC(=O)O[C@@]12CO[C@@H]1C[C@H](O)[C@@]1(C)C(=O)[C@H](O)C3=C(C)[C@@H](OC(=O)[C@H](O)[C@@H](NC(=O)OC(C)(C)C)c4ccccc4)C[C@@](O)([C@@H](OC(=O)c4ccccc4)[C@H]21)C3(C)C [docetaxel]
- IC50 (Homo sapiens, Epithelial cell, 0.5 h, Plate No. 02; Riboflavin 20 nmol/L; medium a), daylight 30 min, read-out: IC50 for docetaxel normalized to medium control of medium with same riboflavin content): 0.1 nM
- IC50 (Homo sapiens, Epithelial cell, 0.5 h, Plate No. 02; Riboflavin 30 nmol/L; medium a), daylight 30 min, read-out: IC50 for docetaxel normalized to medium control of medium with same riboflavin content): 0.138 nM
- IC50 (Homo sapiens, Epithelial cell, 0.5 h, Plate No. 02; Riboflavin 120 nmol/L; medium a), daylight 30 min, read-out: IC50 for docetaxel normalized to medium control of medium with same riboflavin content): 0.143 nM
- IC50 (Homo sapiens, Epithelial cell, 0.5 h, Plate No. 03; Riboflavin 20 nmol/L; medium a), bench lighting <30 min, read-out: IC50 for docetaxel normalized to medium control of medium with same riboflavin content): 0.1 nM
- IC50 (Homo sapiens, Epithelial cell, 0.5 h, Plate No. 03; Riboflavin 30 nmol/L; medium a), bench lighting <30 min, read-out: IC50 for docetaxel normalized to medium control of medium with same riboflavin content): 0.0873 nM
- IC50 (Homo sapiens, Epithelial cell, 0.5 h, Plate No. 03; Riboflavin 120 nmol/L; medium a), bench lighting <30 min, read-out: IC50 for docetaxel normalized to medium control of medium with same riboflavin content): 0.0725 nM
- IC50 (Homo sapiens, Epithelial cell, 0.5 h, Plate No. 03; Riboflavin 1018 nmol/L; medium a), bench lighting <30 min, read-out: IC50 for docetaxel normalized to medium control of medium with same riboflavin content): 0.095 nM
- IC50 (Homo sapiens, Epithelial cell, 0.5 h, Plate No. 04; Riboflavin 20 nmol/L; medium a), bench lighting <30 min, daylight 30 min, read-out: IC50 for docetaxel normalized to medium control of medium with same riboflavin content): 0.1 nM
- IC50 (Homo sapiens, Epithelial cell, 0.5 h, Plate No. 04; Riboflavin 30 nmol/L; medium a), bench lighting <30 min, daylight 30 min, read-out: IC50 for docetaxel normalized to medium control of medium with same riboflavin content): 0.0796 nM
- IC50 (Homo sapiens, Epithelial cell, 0.5 h, Plate No. 04; Riboflavin 120 nmol/L; medium a), bench lighting <30 min, daylight 30 min, read-out: IC50 for docetaxel normalized to medium control of medium with same riboflavin content): 0.0855 nM
- IC50 (Homo sapiens, Epithelial cell, 0.5 h, Plate No. 06; Riboflavin 499 nmol/L; medium b), daylight 30 min, read-out: IC50 for docetaxel normalized to medium control of medium with same riboflavin content): 0.1 nM
- IC50 (Homo sapiens, Epithelial cell, 0.5 h, Plate No. 06; Riboflavin 508 nmol/L; medium b), daylight 30 min, read-out: IC50 for docetaxel normalized to medium control of medium with same riboflavin content): 0.218 nM
